US20160047819A1, “METHOD FOR DIAGNOSING VAGINAL INFECTIONS” (priority 2013, published 2016)

Tested on: vaginal proteome (human proteins in vaginal fluid)
Assay: MS/MS proteomic analysis of vaginal fluid pools, BV-affected women before (BV) and after rifaximin/placebo treatment: human proteins
Type: in vivo
Settings: for Ratio: BV/R, Alpha-1-acid glycoprotein 1 / Ratio: BV/R, Alpha-1-acid glycoprotein 2 / Ratio: BV/R, Calcium-activated chloride channel regulator 4 / Ratio: BV/R, Catalase / Ratio: BV/R, Desmocollin-2 / Ratio: BV/R, Galectin-3-binding protein / Ratio: BV/R, Hemopexin / Ratio: BV/R, Ig mu chain C region / Ratio: BV/R, Immunoglobulin J chain / Ratio: BV/R, Keratin, type I cytoskeletal 10 / Ratio: BV/R, Keratin, type II cytoskeletal 1 / Ratio: BV/R, Keratin, type II cytoskeletal 2 epidermal / Ratio: BV/R, Keratin, type II cytoskeletal 5 / Ratio: BV/R, Lymphocyte-specific protein 1 / Ratio: BV/R, Myeloblastin / Ratio: BV/R, Neutrophil gelatinase-associated lipocalin / Ratio: BV/R, Perilipin-3 / Ratio: BV/R, Periplakin / Ratio: BV/R, Protein S100-A7 / Ratio: BV/R, Protein S100-A9 / Ratio: BV/R, Small proline-rich protein 3 / Ratio: BV/R, Superoxide dismutase [Cu—Zn] / Ratio: BV/R, Vitamin D-binding protein: vaginal fluid
Protocol: Proteomic analysis was performed on 9 pools of vaginal isolates, grouped according to the status of the BV infection: • H pool (from 41 healthy women); BV pool (from 39 BV-affected women); • A-R pool (from 2 women who were in remission after rifaximin treatment-group A); • A-N pool (from 8 women who were not in remission after rifaximin treatment-group A); • B-R pool (from 5 women who were in remission after rifaximin treatment-group B); • B-N pool (from 5 women who were not in remission after rifaximin treatment-group B); • C-R pool (from 4 women who were in remission after rifaximin treatment-group C); • C-N (from 5 women who were not in remission after rifaximin treatment-group C); • D-N (from 10 women who were not in remission after placebo treatment-group D). Scheme of the vaginal fluids collected for testing the diagnostic method is represented in FIG. 1.
In these figures are reported the peptides in the fractionated pools of healthy women, women affected by BV and peptides of women treated with rifaximin. The treatment with rifaximin was at dosage of 100 mg/day for 5 days; (remission, A-R; no remission, A-N), 25 mg/5 days (remission, B-R; no remission, B-N), 100 mg/2 days (remission, C-R; no remission, C-N), and placebo for 5 days (D-N). Two types of comparisons were carried out: (i) between fractionated pools of proteins from vaginal fluid of healthy women (HF) versus fractionated pool of proteins from vaginal fluid of women affected by bacterial vaginosis (BVF); (ii) between whole pools of proteins from vaginal fluid of women affected by BV treated by administering different doses of rifaximin or placebo before (BV) and after (A-R, A-N, B-R, B-N, C-R, C-N, D-N) treatment. Fractioned pools of proteins are obtained, e.g., by separating the proteins by separation on membrane filtration with different membrane porosity, prior to MS/MS analysis.
Nine volumes of acetone: HCl (10:1) were added to the supernatant of the vaginal rinsing and proteins were precipitated by centrifuging at 12000 g for 10 min. The protein pellet was dissolved in 1 mL of 70% ethanol and the sample was spun at 12000 g for 10 min. One mL of acetone was added and the proteins were further precipitated by centrifugation at 12000 g for 5 min. After removing supernatant, pellet was dried by SpeedVac concentrator (Thermo Savant ISS110, Thermo Fisher Scientific, Waltham, Mass.) and then stored at −20° C.
Protein extract was quantified using the 2-D Quant Kit (GE Healthcare, Uppsala, Sweden) according to the manufacturer's instructions.
Patients who were diagnosed for BV at the study visit V1 were included in a multicentre, double-blind, randomised, placebo-controlled study (EudraCT: 2009-011826-32), that was performed to compare the efficacy of different doses of rifaximin vaginal tablets versus placebo for the treatment of BV. The patients underwent a randomisation visit and were distributed into 4 treatment groups: group A received 100 mg rifaximin vaginal tablet once daily for 5 days (n=10), group B received 25 mg rifaximin vaginal tablet once daily for 5 days (n=10), group C received 100 mg rifaximin vaginal tablet once daily for the first 2 days and placebo vaginal tablet for the remaining 3 days (n=9), group D received placebo vaginal tablet once daily for 5 days (n=10). Study medication was administered intra-vaginally at bedtime. After 7 to 10 days from the end of the therapy a follow-up visit (V3) was performed. Remission was evaluated at V3 according to Amsel's criteria (<3) and Gram stain Nugent score (≦3) (Table 1).
Standardized vaginal rinsings with 2 mL of saline were collected for analysis at V1 and V3 by flushing and re-aspirating the fluid through a 22 Gauge needle in the left, central and right upper vaginal vaults. The vaginal rinsings were subsequently stored at −80° C. until use.
MS/MS analysis was carried out for H and BV pools and for the whole BV, A-R, A-N, B-R, B-N, C-R, C-N and D-N pools containing 50 μg of protein each. […]

[1] = A-R pool (100 mg × 5 days, in remission) vs BV pool before treatment
[2] = B-R pool (25 mg × 5 days, in remission) vs BV pool before treatment
[3] = B-R pool (25 mg × 5 days, remission) vs BV pool
[4] = B-R pool vs BV pool, differentially expressed only in B-R
[5] = C-R pool (100 mg × 2 days, in remission) vs BV pool before treatment

## CO[C@H]1/C=C/O[C@@]2(C)Oc3c(C)c(O)c4c(O)c(c5c(nc6cc(C)ccn65)c4c3C2=O)NC(=O)/C(C)=C\C=C\[C@H](C)[C@H](O)[C@@H](C)[C@@H](O)[C@@H](C)[C@H](OC(C)=O)[C@@H]1C [rifaximin]
[1]
  Ratio: BV/R, Alpha-1-acid glycoprotein 1: 2.3
  Ratio: BV/R, Alpha-1-acid glycoprotein 2: 1.5
  Ratio: BV/R, Calcium-activated chloride channel regulator 4: 2.9
  Ratio: BV/R, Catalase: 0.0
  Ratio: BV/R, Desmocollin-2: −1.5
  Ratio: BV/R, Galectin-3-binding protein: 3.6
  Ratio: BV/R, Hemopexin: 1.9
  Ratio: BV/R, Ig mu chain C region: 1.8
  Ratio: BV/R, Immunoglobulin J chain: −1.5
  Ratio: BV/R, Keratin, type I cytoskeletal 10: −2.8
  Ratio: BV/R, Keratin, type II cytoskeletal 1: −3.9
  Ratio: BV/R, Keratin, type II cytoskeletal 2 epidermal: −4.3
  Ratio: BV/R, Keratin, type II cytoskeletal 5: −16.3
  Ratio: BV/R, Lymphocyte-specific protein 1: −2.8
  Ratio: BV/R, Myeloblastin: 0.0
  Ratio: BV/R, Neutrophil gelatinase-associated lipocalin: 0.0
  Ratio: BV/R, Perilipin-3: −1.7
  Ratio: BV/R, Periplakin: −3.6
  Ratio: BV/R, Protein S100-A7: 19.2
  Ratio: BV/R, Protein S100-A9: 4.2
  Ratio: BV/R, Small proline-rich protein 3: −6.6
  Ratio: BV/R, Superoxide dismutase [Cu—Zn]: 1.8
  Ratio: BV/R, Vitamin D-binding protein: 1.7
B-N pool vs BV pool
  number of differentially expressed human proteins: 155
[2]
  Ratio: BV/R, Alpha-1-acid glycoprotein 1: 7.8
  Ratio: BV/R, Alpha-1-acid glycoprotein 2: 19.5
  Ratio: BV/R, Calcium-activated chloride channel regulator 4: 0.0
  Ratio: BV/R, Catalase: 4.0
  Ratio: BV/R, Desmocollin-2: −2.0
  Ratio: BV/R, Galectin-3-binding protein: 2.7
  Ratio: BV/R, Hemopexin: 9.0
  Ratio: BV/R, Ig mu chain C region: 8.1
  Ratio: BV/R, Immunoglobulin J chain: −4.1
  Ratio: BV/R, Keratin, type I cytoskeletal 10: −3.5
  Ratio: BV/R, Keratin, type II cytoskeletal 1: −6.2
  Ratio: BV/R, Keratin, type II cytoskeletal 2 epidermal: −7.1
  Ratio: BV/R, Keratin, type II cytoskeletal 5: −12.7
  Ratio: BV/R, Lymphocyte-specific protein 1: −3.2
  Ratio: BV/R, Myeloblastin: 3.1
  Ratio: BV/R, Neutrophil gelatinase-associated lipocalin: −1.5
  Ratio: BV/R, Perilipin-3: −2.9
  Ratio: BV/R, Periplakin: −3.4
  Ratio: BV/R, Protein S100-A7: 5.7
  Ratio: BV/R, Protein S100-A9: 2.6
  Ratio: BV/R, Small proline-rich protein 3: −6.6
  Ratio: BV/R, Superoxide dismutase [Cu—Zn]: 1.5
  Ratio: BV/R, Vitamin D-binding protein: 17.8
[3]
  expression change of Kininogen-1: −88.6 ratio
  expression change of Prostate stem cell antigen: 63.8 ratio
  expression change of Stanniocalcin-1: 113.1 ratio
B-R pool vs BV pool
  number of differentially expressed human proteins: 214
[4]
  expression change of Ig heavy chain V-III region BUT: −1.6 ratio
  expression change of Ig heavy chain V-III region VH26: −1.5 ratio
  expression change of Kallikrein-13: 1.5 ratio
  expression change of Neutrophil gelatinase-associated lipocalin: 1.5 ratio
  expression change of Zinc-alpha-2-glycoprotein: −9.4 ratio
[5]
  Ratio: BV/R, Alpha-1-acid glycoprotein 1: 0.0
  Ratio: BV/R, Alpha-1-acid glycoprotein 2: −1.9
  Ratio: BV/R, Calcium-activated chloride channel regulator 4: 1.8
  Ratio: BV/R, Catalase: 2.3
  Ratio: BV/R, Desmocollin-2: 0.0
  Ratio: BV/R, Galectin-3-binding protein: 0.0
  Ratio: BV/R, Hemopexin: 1.7
  Ratio: BV/R, Ig mu chain C region: 0.0
  Ratio: BV/R, Immunoglobulin J chain: −2.2
  Ratio: BV/R, Keratin, type I cytoskeletal 10: 0.0
  Ratio: BV/R, Keratin, type II cytoskeletal 1: −2.3
  Ratio: BV/R, Keratin, type II cytoskeletal 2 epidermal: 0.0
  Ratio: BV/R, Keratin, type II cytoskeletal 5: −2.5
  Ratio: BV/R, Lymphocyte-specific protein 1: 0.0
  Ratio: BV/R, Myeloblastin: 4.0
  Ratio: BV/R, Neutrophil gelatinase-associated lipocalin: 0.0
  Ratio: BV/R, Perilipin-3: −2.3
  Ratio: BV/R, Periplakin: −2.0
  Ratio: BV/R, Protein S100-A7: 2.5
  Ratio: BV/R, Protein S100-A9: 0.0
  Ratio: BV/R, Small proline-rich protein 3: −4.4
  Ratio: BV/R, Superoxide dismutase [Cu—Zn]: 0.0
  Ratio: BV/R, Vitamin D-binding protein: 0.0
Pool A-N after treatment
  Ratio X/H Sciellin (O95171): 0.0
  Ratio X/H Semenogelin-2 (Q02383): 525.8
  Ratio X/H Serine protease 27 (Q9BQR3): 0.0
  Ratio X/H Serine/threonine-protein kinase ULK1 (O75385): −5.1
  Ratio X/H Serotransferrin (P02787): 1.6
  Ratio X/H Serpin B3 (P29508): 0.0
  Ratio X/H Serpin B4 (P48594): 0.0
  Ratio X/H Serpin B5 (P36952): −3.3
  Ratio X/H Serpin B6 (P35237): −2.1
  Ratio X/H Serpin B9 (P50453): −2.6
  Ratio X/H Serpin B12 (Q96P63): −1.5
  Ratio X/H Serpin B13 (Q9UIV8): 0.0
  Ratio X/H Serum albumin (P02768): −1.5
  Ratio X/H Serum paraoxonase/arylesterase 1 (P27169): 1.5
  Ratio X/H Small proline-rich protein 3 (Q9UBC9): 3.4
  Ratio X/H Stanniocalcin-1 (P52823): 1.9
  Ratio X/H Sulfhydryl oxidase 1 (O00391): −1.6
  Ratio X/H Superoxide dismutase [Cu—Zn] (P00441): 0.0
  Ratio X/H Suprabasin (Q6UWP8): 13.5
  Ratio X/H Syntenin-1 (O00560): 4.4
  Ratio X/H Talin-1 (Q9Y490): 0.0
  Ratio X/H Tctex1 domain-containing protein 2 (Q8WW35): −1.6
  Ratio X/H Teneurin-3 (Q9P273): 9.7
  Ratio X/H Thioredoxin (P10599): 0.0
  Ratio X/H Transaldolase (P37837): −1.8
  Ratio X/H Transmembrane protease serine 11D (O60235): −1.8
  Ratio X/H Transthyretin (P02766): 0.0
  Ratio X/H Tumor protein D54 (O43399): 0.0
  Ratio X/H UTP--glucose-1-phosphate uridylyltransferase (Q16851): 0.0
  Ratio X/H UV excision repair protein RAD23 homolog B (P54727): −2.9
  Ratio X/H Uronyl 2-sulfotransferase (Q9Y2C2): −786.0
  Ratio X/H Versican core protein (P13611): 0.0
  Ratio X/H Vinculin (P18206): 0.0
  Ratio X/H Vitamin D-binding protein (P02774): 0.0
  Ratio X/H Werner syndrome ATP-dependent helicase (Q14191): 302.6
  Ratio X/H Zinc finger protein 185 (O15231): 2.2
  Ratio X/H Zinc finger protein 335 (Q9H4Z2): 0.0
  Ratio X/H Zinc-alpha-2-glycoprotein (P25311): 0.0
  Ratio X/H Zyxin (Q15942): −1.7
Pool A-R after treatment
  Ratio X/H Sciellin (O95171): 0.0
  Ratio X/H Semenogelin-2 (Q02383): 1.9
  Ratio X/H Serine protease 27 (Q9BQR3): −1.7
  Ratio X/H Serine/threonine-protein kinase ULK1 (O75385): −2.2
  Ratio X/H Serotransferrin (P02787): −1.5
  Ratio X/H Serpin B3 (P29508): 3.2
  Ratio X/H Serpin B4 (P48594): 0.0
  Ratio X/H Serpin B5 (P36952): −7.9
  Ratio X/H Serpin B6 (P35237): 0.0
  Ratio X/H Serpin B9 (P50453): −4.1
  Ratio X/H Serpin B12 (Q96P63): −2.7
  Ratio X/H Serpin B13 (Q9UIV8): 0.0
  Ratio X/H Serum albumin (P02768): −2.3
  Ratio X/H Serum paraoxonase/arylesterase 1 (P27169): 0.0
  Ratio X/H Small proline-rich protein 3 (Q9UBC9): 6.6
  Ratio X/H Stanniocalcin-1 (P52823): 3.4
  Ratio X/H Sulfhydryl oxidase 1 (O00391): 0.0
  Ratio X/H Superoxide dismutase [Cu—Zn] (P00441): −1.8
  Ratio X/H Suprabasin (Q6UWP8): 17.9
  Ratio X/H Syntenin-1 (O00560): 1.9
  Ratio X/H Talin-1 (Q9Y490): −1.6
  Ratio X/H Tctex1 domain-containing protein 2 (Q8WW35): 1.8
  Ratio X/H Teneurin-3 (Q9P273): 33.3
  Ratio X/H Thioredoxin (P10599): 2.5
  Ratio X/H Transaldolase (P37837): −1.9
  Ratio X/H Transmembrane protease serine 11D (O60235): 0.0
  Ratio X/H Transthyretin (P02766): 0.0
  Ratio X/H Tumor protein D54 (O43399): 2.2
  Ratio X/H UTP--glucose-1-phosphate uridylyltransferase (Q16851): 0.0
  Ratio X/H UV excision repair protein RAD23 homolog B (P54727): −2.8
  Ratio X/H Uronyl 2-sulfotransferase (Q9Y2C2): 2.0
  Ratio X/H Versican core protein (P13611): 0.0
  Ratio X/H Vinculin (P18206): 0.0
  Ratio X/H Vitamin D-binding protein (P02774): −1.7
  Ratio X/H Werner syndrome ATP-dependent helicase (Q14191): 331.1
  Ratio X/H Zinc finger protein 185 (O15231): 5.2
  Ratio X/H Zinc finger protein 335 (Q9H4Z2): 0.0
  Ratio X/H Zinc-alpha-2-glycoprotein (P25311): 0.0
